pEC50, pKd: −log10 of the molar value. Where two headings read alike, the source gives them in different places. Positions of bridges follow the written chain, without caps; N, C: chain ends. Non-standard residues stand in square brackets, D forms with d. Residues, ends and D or L forms follow the SMILES beside them. dPhe(4-CF3) = N[C@H](Cc1ccc(C(F)(F)F)cc1)C(=O)O; dTrp(6-F) = N[C@H](Cc1c[nH]c2cc(F)ccc12)C(=O)O; Lys(N3) = [N-]=[N+]=NCCCC[C@H](N)C(=O)O; R8 = C=CCCCCCC[C@@](C)(N)C(=O)O; Cba = N[C@@H](CC1CCC1)C(=O)O; R5 = C=CCCC[C@@](C)(N)C(=O)O; S5 = C=CCCC[C@](C)(N)C(=O)O; βAla = NCCC(=O)O
Legend:
[1] = target: T1, human Mdm2 1–125 (Homo sapiens, UniProt Q00987); assay: Mdm2 binding by competitive fluorescence anisotropy assay (FP binding)
T1 construct: GST (N); His6 (internal); TEV cleavage site (ENLYFQG) (internal); made in house; host or cells: BL21 (DE3) Rosetta T1R Escherichia coli
T1 sequence (Q00987 with tags, fused parts or gaps): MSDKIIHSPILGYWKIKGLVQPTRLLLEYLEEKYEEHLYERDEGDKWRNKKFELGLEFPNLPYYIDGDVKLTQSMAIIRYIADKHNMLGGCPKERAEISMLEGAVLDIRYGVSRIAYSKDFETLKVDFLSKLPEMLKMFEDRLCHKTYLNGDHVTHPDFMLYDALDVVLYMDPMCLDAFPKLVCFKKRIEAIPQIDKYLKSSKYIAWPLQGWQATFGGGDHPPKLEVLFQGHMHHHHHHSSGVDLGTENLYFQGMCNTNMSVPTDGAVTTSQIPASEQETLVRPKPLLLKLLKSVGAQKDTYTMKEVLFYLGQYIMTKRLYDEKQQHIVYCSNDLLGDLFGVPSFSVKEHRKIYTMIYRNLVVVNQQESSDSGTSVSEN

[2] = Circular dichroism (CD) helicity; type: physicochemical
Protocol: A total of 5 µL of the 10 mM stock peptide was mixed with 45 µL of 100% methanol, and dried for 2 h in the SpeedVac concentrator (Thermo Scientific). The dried peptide was reconstituted in a buffer (1 mM Hepes pH 7.4 and 5% methanol) to a concentration of 1 mM. The peptide sample was placed in a quartz cuvette with a path length of 0.2 cm. The peptide concentration was determined by the absorbance of the peptide at […]. The CD spectrum was recorded from 300 to 190 nm using the Chirascan-plus qCD machine (Applied Photophysics, Surrey, UK), at 25 °C. All experiments were done in duplicates. The CD spectrum was converted to mean residue ellipticity before deconvolution and estimation of the secondary structure components of the peptide using the CDNN software (distributed by Applied Photophysics). Measurements were taken at least twice and were reported as arithmetic means.

[3] = test system: cells transiently transfected with the NanoLuc-HaloTag vector; assay: Nanoclick permeability assay; details: 4Hr
Procedure, shortened: (§1)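 Azido-peptide permeability was read as loss of NanoBRET signal (donor 450 nm, acceptor 610 nm) after adding NanoBret618-azide at 10 μM final.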

[4] = test system: Ca Ski cell line
Procedure, shortened: (§2)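 Compound dilution series (10 points, 3-fold, 10 mM top stock in DMSO) tested on overnight-plated Ca Ski cells in RPMI1640/10% FBS and on blasticidin-selected p53RE-bla HCT-116 cells in McCoy's 5A; read-out was CellTiter-Glo 2.0 luminescence after room-temperature equilibration.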

[5] = test system: CellSensor p53RE-bla HCT-116 Cell Line
Procedure, shortened: as §2

[6] = Nanoclick permeability assay
Procedure, shortened: as §1

[7] = FP binding assay KD, Tween-20 <CMC
[8] = read-out: Cell Proliferation assay EC50, Ca-Ski, p53 Mut, Ca-Ski
[9] = read-out: Proliferation EC50 Ca Ski (Off-target), Ca Ski
[10] = read-out: Cell Proliferation assay EC50, HCT116, p53 WT, HCT116
[11] = read-out: Proliferation EC50 HCT116 (On-target), HCT116
[12] = Nanoclick permeability assay EC50

Row | Structure (SMILES) | CD % Helicity [2] [%] | Nanoclick permeability assay % Effect [3] [%] | pKd ([1]; Binding KD) | pKd [1, 7] | pEC50 [4, 8] | pEC50 [5, 10] | cell entry EC50 [6] [nM] | other results
1 | CC(=O)N[C@@H](CC(C)C)C(=O)N[C@H](C(=O)N[C@@H](Cc1ccccc1)C(=O)N[C@]1(C)CCCCCCC=CCCC[C@@](C)(C(=O)N[C@@H](CO)C(=O)N[C@@H](C)C(=O)N[C@@H](C)C(N)=O)NC(=O)[C@@H](CC2CCC2)NC(=O)[C@H](CC(C)C)NC(=O)[C@H](CCC(N)=O)NC(=O)[C@H](Cc2c[nH]c3ccccc23)NC(=O)[C@H](Cc2ccc(O)cc2)NC(=O)[C@H](CCC(=O)O)NC1=O)[C@@H](C)O [MP-009] | 23.85 | 22.02 |  |  |  |  |  | pKd ([1]; read-out: FP binding assay KD): 5.65
2 | CC(=O)N[C@@H](C(=O)N[C@H](C)C(=O)N[C@H](Cc1c[nH]c2cc(F)ccc12)C(=O)N[C@H](Cc1ccc(O)cc1)C(=O)N[C@H](C)C(=O)N[C@]1(C)CCCC=CCCC[C@](C)(C(=O)N[C@H](CC(C)C)C(=O)N[C@H](CO)C(=O)N[C@H](C)C(=O)N[C@H](C)C(=O)N[C@H](C)C(=O)N[C@H](C)C(=O)N[C@H](C)C(=O)N[C@H](C)C(N)=O)NC(=O)[C@@H](CCC(N)=O)NC(=O)[C@@H](CCC(=O)O)NC(=O)[C@@H](Cc2ccc(C(F)(F)F)cc2)NC1=O)[C@H](C)O [MP-042] (Ac-[dT][dA][dTrp(6-F)][dY][dA][R5][dPhe(4-CF3)][dE][dQ][R5][dL][dS][dA][dA][dA][dA][dA][dA]-NH2; staple 6-10) | 57.4 | 1.941 | 7.52 | 8.49 | 4.50 | 5.37 | > 10000 | pEC50 [4, 9]: 4.51; pEC50 [5, 11]: 5.82
3 | CC(=O)N[C@@H](CCCCN=[N+]=[N-])C(=O)NCCC(=O)N[C@@H](CC(C)C)C(=O)N[C@H](C(=O)N[C@@H](Cc1ccccc1)C(=O)N[C@]1(C)CCCCCCC=CCCC[C@@](C)(C(=O)N[C@@H](CO)C(=O)N[C@@H](C)C(=O)N[C@@H](C)C(N)=O)NC(=O)[C@H](CC2CCC2)NC(=O)[C@H](CCC(N)=O)NC(=O)[C@H](C)NC(=O)[C@H](Cc2c[nH]c3ccccc23)NC(=O)[C@H](Cc2ccc(O)cc2)NC(=O)[C@H](Cc2c[nH]c3ccccc23)NC1=O)[C@@H](C)O [MP-185] (Ac-[Lys(N3)][βAla]LTF[R8]WYWAQ[Cba][S5]SAA-NH2; staple 6-13) |  | 140.4 |  |  |  |  |  | pKd ([1]; read-out: FP binding assay KD): 7.01; pEC50 ([4]; 72 h): < 4.30; pEC50 ([5]; 72 h): 5.71; cell entry EC50 [6, 12]: 77.4 nM
4 | CC(=O)N[C@@H](C(=O)N[C@H](C)C(=O)N[C@H](Cc1c[nH]c2cc(F)ccc12)C(=O)N[C@H](Cc1ccc(O)cc1)C(=O)N[C@H](C)C(=O)N[C@]1(C)CCCC=CCCC[C@](C)(C(=O)N[C@H](CC(C)C)C(=O)N[C@H](CO)C(=O)N[C@H](C)C(=O)N[C@H](C)C(=O)N[C@H](C)C(N)=O)NC(=O)[C@@H](CCC(N)=O)NC(=O)[C@@H](CCC(=O)O)NC(=O)[C@@H](Cc2ccc(C(F)(F)F)cc2)NC1=O)[C@H](C)O [MP-0230] (Ac-[dT][dA][dTrp(6-F)][dY][dA][R5][dPhe(4-CF3)][dE][dQ][R5][dL][dS][dA][dA][dA]-NH2; staple 6-10) | 49.95 | 30.67 |  |  |  |  |  | pKd ([1]; Tween-20 <CMC, read-out: FP binding assay KD): 8.51; cell entry EC50 [6, 12]: > 10000 nM
5 | CC(=O)N[C@@H](CCCCN=[N+]=[N-])C(=O)NCCC(=O)N[C@@H](CC(N)=O)C(=O)N[C@H](C(=O)N[C@@H](Cc1ccccc1)C(=O)N[C@]1(C)CCCCCCC=CCCC[C@@](C)(C(=O)N[C@@H](CC(N)=O)C(=O)N[C@@H](CC(N)=O)C(=O)N[C@@H](CC(N)=O)C(N)=O)NC(=O)[C@H](CC2CCC2)NC(=O)[C@H](CCC(N)=O)NC(=O)[C@H](CC(N)=O)NC(=O)[C@H](Cc2c[nH]c3ccccc23)NC(=O)[C@H](Cc2ccc(O)cc2)NC(=O)[C@H](CC(N)=O)NC1=O)[C@@H](C)O [MP-359, azide-ATSP-7041 (L1N, E5N, A8N, S12N, A13N, A14N)] (Ac-[Lys(N3)][βAla]NTF[R8]NYWNQ[Cba][S5]NNN-NH2; staple 6-13) | 39.55 | 112.9 | 7.82 |  |  |  | 380 | pEC50 ([4]; read-out: Cell Proliferation assay EC50, p53 Mut, Ca-Ski): < 4.30; pEC50 ([5]; read-out: Cell Proliferation assay EC50, p53 WT, HCT116): 4.57
6 | CC(C)C[C@@H](NC(=O)[C@@]1(C)CCCC=CCCC[C@@](C)(NC(=O)[C@@H](C)NC(=O)[C@@H](Cc2ccc(O)cc2)NC(=O)[C@@H](Cc2c[nH]c3cc(F)ccc23)NC(=O)[C@@H](C)NC(=O)[C@H](N)[C@H](C)O)C(=O)N[C@H](Cc2ccc(C(F)(F)F)cc2)C(=O)N[C@H](CCC(=O)O)C(=O)N[C@H](CCC(N)=O)C(=O)N1)C(=O)N[C@H](CO)C(N)=O [MP-795] (H-[dT][dA][dTrp(6-F)][dY][dA][R5][dPhe(4-CF3)][dE][dQ][R5][dL][dS]-NH2; staple 6-10) |  | 23.68 |  | 6.82 | 4.65 | 4.58 | > 10000 | 
7 | CC(=O)N[C@@H](C(=O)N[C@H](C)C(=O)N[C@H](Cc1c[nH]c2cc(F)ccc12)C(=O)N[C@H](Cc1ccc(O)cc1)C(=O)N[C@H](C)C(=O)N[C@]1(C)CCCC=CCCC[C@](C)(C(=O)N[C@H](CC(C)C)C(=O)N[C@H](CO)C(N)=O)NC(=O)[C@@H](CCC(N)=O)NC(=O)[C@@H](CCC(=O)O)NC(=O)[C@@H](Cc2ccc(C(F)(F)F)cc2)NC1=O)[C@H](C)O [MP-797] (Ac-[dT][dA][dTrp(6-F)][dY][dA][R5][dPhe(4-CF3)][dE][dQ][R5][dL][dS]-NH2; staple 6-10) | 26.6 | 69.79 |  | 6.59 | 4.52 | 5.04 | > 10000 | pEC50 [4, 9]: 4.52; pEC50 [5, 11]: 5.04
8 | CC(=O)N[C@@H](CCCCN=[N+]=[N-])C(=O)NCCC(=O)N[C@@H](CC(C)C)C(=O)N[C@H](C(=O)N[C@@H](Cc1ccccc1)C(=O)N[C@]1(C)CCCCCCC=CCCC[C@@](C)(C(=O)N2CCC[C@@H]2C(=O)N2CCC[C@@H]2C(=O)N2CCC[C@@H]2C(=O)N2CCC[C@@H]2C(=O)N2CCC[C@@H]2C(=O)N2CCC[C@@H]2C(N)=O)NC(=O)[C@H](CC2CCC2)NC(=O)[C@H](CCC(N)=O)NC(=O)[C@H](C)NC(=O)[C@H](Cc2c[nH]c3ccccc23)NC(=O)[C@H](Cc2ccc(O)cc2)NC(=O)[C@H](CCC(=O)O)NC1=O)[C@@H](C)O [MP-896] | 19.15 | 114.3 | 7.96 | 7.96 | < 4.30 |  | 1420 | Aqueous solution helicity ([2]; circular dichroism): 19.15%
9 | CC(=O)N[C@@H](C(=O)N[C@H](C)C(=O)N[C@H](Cc1c[nH]c2cc(F)ccc12)C(=O)N[C@H](Cc1ccc(O)cc1)C(=O)N[C@H](C)C(=O)N[C@]1(C)CCCC=CCCC[C@](C)(C(=O)N[C@H](CC(C)C)C(=O)N[C@H](CO)C(=O)N[C@H](C)C(=O)N[C@H](C)C(=O)N[C@H](C)C(=O)N[C@H](C)C(=O)N[C@H](C)C(=O)N[C@H](C)C(=O)N[C@H](C)C(=O)N[C@H](C)C(=O)N[C@H](C)C(N)=O)NC(=O)[C@@H](CCC(N)=O)NC(=O)[C@@H](CCC(=O)O)NC(=O)[C@@H](Cc2ccc(C(F)(F)F)cc2)NC1=O)[C@H](C)O [MP-1230] (Ac-[dT][dA][dTrp(6-F)][dY][dA][R5][dPhe(4-CF3)][dE][dQ][R5][dL][dS][dA][dA][dA][dA][dA][dA][dA][dA][dA]-NH2; staple 6-10) | 8.3 |  |  | 7.66 | < 4.30 | 4.67 |  | 

Reference: article PMC10786919, “Design-rules for stapled peptides with in vivo activity and their application to Mdm2/X antagonists” (Nature Communications, 2024)
